In patent US20250145633A1, “SUBSTITUTED FURANOPYRIMIDINE COMPOUNDS AS PDE1 INHIBITORS” (Dart NeuroScience, LLC, priority 2017, published 2025):

Each compound was assayed against human PDE1B enzyme (Homo sapiens (Human), UniProt Q01064) (assay: IMAP TR-FRET PDE1B enzymatic assay). Conditions: negative log of half-maximal molar inhibitory concentration; 200 nM FAM-cAMP; values given as bins.
Format: biochemical
Experimental: PDE1B inhibition was determined by an IMAP TR-FRET assay. The IMAP TR-FRET PDE assay was optimized for concentration of enzyme, Calmodulin, cAMP or cGMP substrate, DMSO tolerance, and incubation time.
Into each well of a solid white 1536 well plate (Corning) was dispensed 250 pg full-length recombinant NH-terminal GST tagged human PDE1B enzyme (BPS Bioscience Cat #60011, San Diego, CA) in 2.5 μL IMAP BSA reaction buffer (Molecular Devices, Sunnyvale, CA) containing 10 U/ml Calmodulin and 2.5 mM CaCl2) (Sigma Aldrich.) After a brief centrifugation, 30 nL of compound was added by transfer from 1 mM stock in DMSO using a Kalypsys 1536 Pintool. Plates were incubated for 5 minutes at room temperature before dispensing 1.5 μL of 533 nM 5-carboxy fluorescein (FAM)-labeled cAMP (Molecular Devices, Sunnyvale, CA) for a final concentration of 200 nM. After a brief centrifugation, the plates were incubated for 30 minutes at room temperature. The assay was terminated by adding 5 μL IMAP binding reagent/Tb complex (Molecular Devices, Sunnyvale, CA) to each well.
Plates were incubated for 1 hour at room temperature and were read on a Viewlux multimode plate reader (Perkin Elmer). The instrument was set to excite using the DUG11 filter and measure using 490/10 nm and 520/10 nm filters. Ratios of acceptor and donor were then calculated.
For IC50 calculations, the values of % efficacy versus a series of compound concentrations were then plotted using non-linear regression analysis of sigmoidal dose-response curves generated with the equation Y=[B+(T−B)]/[1+10((Log EC50−X)×Hill Slope)], where Y=percent activity, B=minimum percent efficacy, T=maximum percent efficacy, X=logarithm of compound and Hill Slope=slope factor or Hill coefficient. The IC50 value was determined by the concentration causing a half-maximal percent efficacy.
For `Cc1oc2ncnc(NC3(C)CC3)c2c1C(=O)N1CCC(c2ccc(F)cc2)C1` (stereo not drawn) [Example 57, 5-[3-(4-Fluorophenyl)pyrrolidine-1-carbonyl]-6-methyl-N-(1-methylcyclopropyl)furo[2,3-d]pyrimidin-4-amine], the “PDE1b (pIC50)” value was >8.
`Cc1cnc(CNC(=O)c2c(C)oc3ncnc(NC4(C)CC4)c23)cn1` [Example 460, 6-Methyl-4-[(1-methylcyclopropyl)amino]-N-[(5-methylpyrazin-2-yl)methyl]furo[2,3-d]pyrimidine-5-carboxamide] was tested, and the “PDE1b (pIC50)” value was >8.
With `Cc1oc2ncnc(NC3(C)CC3)c2c1C(=O)N1CCC(c2nccc(NCCF)n2)CC1` [Example 26, (4-(4-((2-Fluoroethyl)amino)pyrimidin-2-yl)piperidin-1-yl)(6-methyl-4-((1-methylcyclopropyl)amino)furo[2,3-d]pyrimidin-5-yl)methanone] the “PDE1b (pIC50)” value was >8.
`COc1ccnc(C2CCN(C(=O)c3c(C)oc4ncnc(NC5(C)CC5)c34)CC2)n1` [Example 345, 5-[4-(4-Methoxypyrimidin-2-yl)piperidine-1-carbonyl]-6-methyl-N-(1-methylcyclopropyl)furo[2,3-d]pyrimidin-4-amine] was tested, and the “PDE1b (pIC50)” value was >8.
`Cc1cnc(CNC(=O)c2c(C)oc3ncnc(NC4(C)CC4)c23)nc1` [Example 705, 6-Methyl-4-[(1-methylcyclopropyl)amino]-N-[(5-methylpyrimidin-2-yl)methyl]furo[2,3-d]pyrimidine-5-carboxamide] was tested, and the “PDE1b (pIC50)” value was >8.
For `Cc1oc2ncnc(NC3(C)CC3)c2c1C(=O)NCc1cc(C2CC2)on1` [Example 323, N-[(5-Cyclopropyl-1,2-oxazol-3-yl)methyl]-6-methyl-4-[(1-methylcyclopropyl)amino]furo[2,3-d]pyrimidine-5-carboxamide], the “PDE1b (pIC50)” value was >8.
With `Cc1ccc(C2CCN(C(=O)c3c(C)oc4ncnc(NC5(C)CC5)c34)CC2)cc1` [Example 384, 6-Methyl-N-(1-methylcyclopropyl)-5-[4-(4-methylphenyl)piperidine-1-carbonyl]furo[2,3-d]pyrimidin-4-amine] the “PDE1b (pIC50)” value was >8.

Same assay, conditions: negative log of half-maximal molar inhibitory concentration; 200 nM FAM-cAMP; values given as bins; read-out: PDE1b (pIC50) (converted)
With `Cc1coc(NC(=O)c2c(C)oc3ncnc(NC4(C)CC4)c23)n1` [Example 451, 6-Methyl-N-(4-methyl-1,3-oxazol-2-yl)-4-[(1-methylcyclopropyl)amino]furo[2,3-d]pyrimidine-5-carboxamide] the IC50 was 10 to 100 nM.
`Cc1oc2ncnc(NC3(C)CC3)c2c1C(=O)N1CCCC2(C1)OCc1ccccc12` (stereo not drawn) [Example 379, 6-Methyl-N-(1-methylcyclopropyl)-5-({3H-spiro[2-benzofuran-1,3′-piperidine]-1′-yl}carbonyl)furo[2,3-d]pyrimidin-4-amine] was tested, and the IC50 was 100 to 1000 nM.
`Cc1oc2ncnc(NC3(C)CC3)c2c1C(=O)N(C)Cc1ccccn1` [Example 214, N,6-Dimethyl-4-[(1-methylcyclopropyl)amino]-N-(pyridin-2-ylmethyl)furo[2,3-d]pyrimidine-5-carboxamide] gave an IC50 of 100 to 1000 nM.
With `Cc1oc2ncnc(NC3(C)CC3)c2c1C(=O)NC1CCN(c2ncccn2)CC1` [Example 665, 6-Methyl-4-[(1-methylcyclopropyl)amino]-N-[1-(pyrimidin-2-yl)piperidin-4-yl]furo[2,3-d]pyrimidine-5-carboxamide] the IC50 was 10 to 100 nM.
`Cc1ccc(C2CCN(C(=O)c3c(C)oc4ncnc(NC5(C)CC5)c34)CC2)cn1` [Example 383, 6-Methyl-N-(1-methylcyclopropyl)-5-[4-(6-methylpyridin-3-yl)piperidine-1-carbonyl]furo[2,3-d]pyrimidin-4-amine] gave an IC50 of 10 to 100 nM.
With `COc1ccc(C(C)N(C)C(=O)c2c(C)oc3ncnc(NC4(C)CC4)c23)cc1F` (stereo not drawn) [Example 510, N-[1-(3-Fluoro-4-methoxyphenyl)ethyl]-N,6-dimethyl-4-[(1-methylcyclopropyl)amino]furo[2,3-d]pyrimidine-5-carboxamide] the IC50 was 10 to 100 nM.
For `Cc1oc2ncnc(NC3(C)CC3)c2c1C(=O)N1CCc2c(ncnc2N2CC[C@@H](F)C2)C1` [Example 18, 5-{4-[(3R)-3-Fluoropyrrolidin-1-yl]-5H,6H,7H,8H-pyrido[3,4-d]pyrimidine-7-carbonyl}-6-methyl-N-(1-methylcyclopropyl)furo[2,3-d]pyrimidin-4-amine], the IC50 was 10 to 100 nM.
Work on `Cc1oc2ncnc(NC3(C)CC3)c2c1C(=O)Nc1cnn(C2CC2)c1` [Example 645, N-(1-Cyclopropyl-1H-pyrazol-4-yl)-6-methyl-4-[(1-methylcyclopropyl)amino]furo[2,3-d]pyrimidine-5-carboxamide] yielded an IC50 of 10 to 100 nM.
Work on `Cc1oc2ncnc(NC3(C)CC3)c2c1C(=O)Nc1ccc(C2CCOCC2)cc1` [Example 721, 6-Methyl-4-[(1-methylcyclopropyl)amino]-N-[4-(oxan-4-yl)phenyl]furo[2,3-d]pyrimidine-5-carboxamide] yielded an IC50 of 100 to 1000 nM.
`Cc1nc(CNC(=O)c2c(C)oc3ncnc(NC4(C)CC4)c23)oc1C` [Example 728, N-[(Dimethyl-1,3-oxazol-2-yl)methyl]-6-methyl-4-[(1-methylcyclopropyl)amino]furo[2,3-d]pyrimidine-5-carboxamide] was tested, and the IC50 was 10 to 100 nM.
For `Cc1oc2ncnc(NC3(C)CC3)c2c1C(=O)N1CCc2c(F)ncnc2C1` [Example 5, (4-Fluoro-5,8-dihydropyrido[3,4-d]pyrimidin-7(6H)-yl)(6-methyl-4-((1-methylcyclopropyl)amino)furo[2,3-d]pyrimidin-5-yl)methanone], the IC50 was 10 to 100 nM.
In the case of `Cc1oc2ncnc(NC3(C)CC3)c2c1C(=O)NCCc1ccco1` [Example 188, N-[2-(Furan-2-yl)ethyl]-6-methyl-4-[(1-methylcyclopropyl)amino]furo[2,3-d]pyrimidine-5-carboxamide], the IC50 was 10 to 100 nM.
Compound `Cc1oc2ncnc(NC3(C)CC3)c2c1C(=O)NCc1cccc(N2CCOCC2)n1` [Example 737, 6-Methyl-4-[(1-methylcyclopropyl)amino]-N-{[6-(morpholin-4-yl)pyridin-2-yl]methyl}furo[2,3-d]pyrimidine-5-carboxamide] has an IC50 of 10 to 100 nM.
For `Cc1oc2ncnc(NC3(C)CC3)c2c1C(=O)N1CCC(c2ccncc2)C1` (stereo not drawn) [Example 72, 6-Methyl-N-(1-methylcyclopropyl)-5-[3-(pyridin-4-yl)pyrrolidine-1-carbonyl]furo[2,3-d]pyrimidin-4-amine], the IC50 was 10 to 100 nM.
`COc1cc(CNC(=O)c2c(C)oc3ncnc(NC4(C)CC4)c23)ccc1O` [Example 487, N-[(4-Hydroxy-3-methoxyphenyl)methyl]-6-methyl-4-[(1-methylcyclopropyl)amino]furo[2,3-d]pyrimidine-5-carboxamide] showed an IC50 of 10 to 100 nM.
In the case of `Cc1oc2ncnc(NC3(C)CC3)c2c1C(=O)N1CCc2cnc(Cl)nc2C1` [Example 690, 5-{2-Chloro-5H,6H,7H,8H-pyrido[3,4-d]pyrimidine-7-carbonyl}-6-methyl-N-(1-methylcyclopropyl)furo[2,3-d]pyrimidin-4-amine], the IC50 was 10 to 100 nM.
Compound `Cc1oc2ncnc(NC3(C)CC3)c2c1C(=O)NC(C)c1cncnc1` (stereo not drawn) [Example 710, 6-Methyl-4-[(1-methylcyclopropyl)amino]-N-[1-(pyrimidin-5-yl)ethyl]furo[2,3-d]pyrimidine-5-carboxamide] has an IC50 of 10 to 100 nM.
Compound `Cc1oc2ncnc(NC3(C)CC3)c2c1C(=O)NCc1cnn(C)c1` [Example 646, 6-Methyl-N-[(1-methyl-1H-pyrazol-4-yl)methyl]-4-[(1-methylcyclopropyl)amino]furo[2,3-d]pyrimidine-5-carboxamide] has an IC50 of 10 to 100 nM.
Compound `Cc1oc2ncnc(NC3(C)CC3)c2c1C(=O)NCc1cc(C(C)C)on1` [Example 324, 6-Methyl-4-[(1-methylcyclopropyl)amino]-N-{[5-(propan-2-yl)-1,2-oxazol-3-yl]methyl}furo[2,3-d]pyrimidine-5-carboxamide] has an IC50 of 10 to 100 nM.
Work on `COCC1(Nc2ncnc3c2CCN(C(=O)c2c(C)oc4ncnc(NC5(C)CC5)c24)C3)CC1` [Example 795, 5-(4-{[1-(Methoxymethyl)cyclopropyl]amino}-5H,6H,7H,8H-pyrido[3,4-d]pyrimidine-7-carbonyl)-6-methyl-N-(1-methylcyclopropyl)furo[2,3-d]pyrimidin-4-amine] yielded an IC50 of 10 to 100 nM.
Compound `Cc1oc2ncnc(NC3(C)CC3)c2c1C(=O)NC1(c2ncccn2)CC1` [Example 349, 6-Methyl-4-[(1-methylcyclopropyl)amino]-N-[1-(pyrimidin-2-yl)cyclopropyl]furo[2,3-d]pyrimidine-5-carboxamide] has an IC50 of 10 to 100 nM.
In the case of `Cc1ccnc(CNC(=O)c2c(C)oc3ncnc(NC4(C)CC4)c23)n1` [Example 458, 6-Methyl-4-[(1-methylcyclopropyl)amino]-N-[(4-methylpyrimidin-2-yl)methyl]furo[2,3-d]pyrimidine-5-carboxamide], the IC50 was 10 to 100 nM.
With `COc1cc(NC(=O)c2c(C)oc3ncnc(NC4(C)CC4)c23)ccc1F` [Example 253, N-(4-Fluoro-3-methoxyphenyl)-6-methyl-4-[(1-methylcyclopropyl)amino]furo[2,3-d]pyrimidine-5-carboxamide] the IC50 was 10 to 100 nM.
